# Measurements published in US11684597B2, “Administration of tailored feedstock to increase nitro-containing amphenicol antibiotic susceptibility” (U.S. Army Research Laboratory, priority 2019, dated 2023).
# Test system: Clostridium acetobutylicum strain ATCC 824
# Assay: antibiotic sensitivity test (MIC, OD600 in 96-well plate, anaerobic)
# Assay type: cell-based
# Conditions: for MIC (final concentration of chloramphenicol): after 24 h of growth
# Procedure: Bacterial culture conditions and strains have been previously published. All strains and cultures were maintained or grown in an atmosphere of 5.0% H2, 5.0% CO2, and 90.0% N2. Clostridium acetobutylicum strain ATCC 824 was obtained from ATCC and cultured using company protocol at 37° C. into Clostridial growth medium or CGM containing 0.75 g KH2PO4, 0.75 g K2HPO4, 1.0 g NaCl, 0.017 g MnSO4.5H2O, 0.70 g MgSO4.7H2O, 0.01 g FeSO4.7H2O, 2.0 g 1-asparagine, 5.0 g yeast extract, 2.0 g (NH4)2SO4, and 0.5% final concentration of desired carbohydrate—D-glucose, D-galacturonic acid, D-gluconic acid—at pH 6.5. Active cultures from initial growth stock were added to potato glucose medium to be maintained and stored as a spore solution. Potato glucose medium or PGM contains per liter of H2O—150 g grated fresh potato, 10 g D-glucose, 0.5 g (NH4)SO4, and 3 g CaCO3. The medium was boiled for 1 hour and strained through gauze before sterilization and use for culture. Spore solution was activated for culturing through a heat shock at 80° C. for 9 minutes. Shocked spore solution was added to CGM containing the feed stock of choice and grown to late log of 0.8 at optical density of 600 nm (OD600) at 37° C. Theses cultures were then used to perform antibiotic sensitivity experiments.
# The protocol for antibiotic sensitivity test was performed as follows in anaerobic conditions: 200 μL of CGM medium containing either 0.5% D-galacturonate or D-glucose was aliquoted into a sterile Costar® 96-well polystyrene flat bottom plate in triplicate per test condition. Chloroamphenicol was dissolved in ethanol at different concentrations. Each chloroamphenicol concentration was added to each well in triplicate and considered a test condition. Test conditions included addition of 1 μL of ethanol, 1 of sterile water, 1 μL 0.1 mg mL^−1, 1 μL 0.25 mg mL^−1, 1 μL 0.5 mg mL^−1, 1 μL 1 mg mL^−1, 1 μL 2.5 mg mL^−1, 1 μL 5 mg mL^−1, 1 μL 10 mg mL^−1, 1 μL 20 mg mL^−1, and 1 μL 10 mg mL^−1. […] The optical density of the cultures in the wells were measured at 600 nm via a commercially available plate reader. […]
compound,measurement,setting,value
O=C(N[C@H](CO)[C@H](O)c1ccc([N+](=O)[O-])cc1)C(Cl)Cl [chloramphenicol],MIC (final concentration of chloramphenicol),C. acetobutylicum grown in CGM with 0.5% D-galacturonate (galacturonic acid) as feedstock,2.4 µg/mL
same,MIC (final concentration of chloramphenicol),C. acetobutylicum grown in CGM with 0.5% D-glucose as feedstock,23.7 µg/mL
same,increase of antibiotic susceptibility with oxidized feed stock compared to glucose as feed stock,"C. acetobutylicum, in vitro, galacturonate vs glucose",10 fold
